Measurements published in US8552038B2, “Crystalline forms of thiazolidinedione compound and its manufacturing method” (Daiichi Sankyo Company, Limited, priority 2007, dated 2013).
Entries after “also recorded” stand apart in the source; their conditions may differ. Counter-ions that a name gives are not always drawn. Like-named read-outs stand apart in the source and are kept apart here.

Assays:
[1] = Solubility test in simulated gastric fluid; type: physicochemical; settings: dihydrochloride; for Solubility: 37° C., after 60 minutes, paddle 250 rpm, free body conversion
Experimental: Solubilities of Crystalline form A and Crystalline form B of Compound (I) in a simulated gastric fluid were measured by the method below (free body conversion).
10 times concentrated Liquid 1 used for the disintegration test of the Japanese Pharmacopoeia (purchased from Kanto Chemical Co., Inc.) was diluted 10-fold with purified water to give a simulated gastric fluid. Approximately 80 mg of the crystalline form for measurement were precisely measured, transferred to a 25 ml volumetric flask, and dissolved in methanol to bring the total volume to 25 ml. 2 ml of the resulting solution were transferred to a 50 ml volumetric flask, and the simulated gastric fluid was added thereto to bring the total volume to 50 ml to give a standard solution.
By using an elution testing machine NTR-6100A (Toyama Sangyo Co., Ltd.), approximately 100 mg of the subject crystalline form were added to 500 ml of the simulated gastric fluid at 37° C., and agitated with a paddle (250 rpm). After 60 minutes, samples were taken from the test solution. The absorbance of the standard solution and test solution samples was measured at 289 nm and 360 nm by using a UV visible spectrophotometer.
weighing amount of the crystalline form used for the preparation of the standard solution (mg): WS;
absorbance of the standard solution at 289 nm: AS289;
absorbance of the standard solution at 360 nm: AS360;
absorbance of the test solution at 289 nm: AT289;
absorbance of the test solution at 360 nm: AT360;
molecular weight of the dihydrochloride monohydrate of Compound (I): 593.52; and
molecular weight of the free body of Compound (I): 502.58

[2] = target: T1, peroxisome proliferator-activated receptor (PPAR) γ (Homo sapiens, UniProt P37231); settings: disclosed in Patent Literature 1-5; cited from earlier work
T1 sequence (P37231 1-505): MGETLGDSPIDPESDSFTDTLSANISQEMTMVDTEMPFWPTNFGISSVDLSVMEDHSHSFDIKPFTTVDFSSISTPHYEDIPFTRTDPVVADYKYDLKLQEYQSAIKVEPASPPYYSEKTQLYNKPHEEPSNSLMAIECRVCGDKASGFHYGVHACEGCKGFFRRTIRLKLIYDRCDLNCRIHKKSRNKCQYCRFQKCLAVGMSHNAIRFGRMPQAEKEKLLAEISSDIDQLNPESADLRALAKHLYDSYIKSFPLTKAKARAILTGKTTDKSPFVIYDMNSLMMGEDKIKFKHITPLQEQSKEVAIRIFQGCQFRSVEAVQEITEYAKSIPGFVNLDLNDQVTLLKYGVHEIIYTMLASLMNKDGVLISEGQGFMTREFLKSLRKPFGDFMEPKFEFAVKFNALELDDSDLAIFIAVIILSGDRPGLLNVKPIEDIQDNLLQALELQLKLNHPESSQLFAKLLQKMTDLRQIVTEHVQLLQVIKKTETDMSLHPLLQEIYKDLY

[3] = tested on: human stomach cancer cells, human breast cancer cells, small cell lung cancer, pancreas cancer cells, prostate cancer cells, kidney cancer cells …; settings: Test Example 1 in WO 2007/091622; cited from earlier work
[4] = tested on: human leukemia cells; settings: Test Example 2 in WO 2007/091622; cited from earlier work
[5] = tested on: human colon cancer cell lines; settings: Test Example 3 in WO 2007/091622; cited from earlier work
[6] = tested on: cancer cells; settings: cited from earlier work
[7] = tested on: human non-small cell lung cancer; settings: Test Example 5, cited from earlier work
[8] = tested on: human kidney cancer; settings: Test Example 7, cited from earlier work

Which Solubility [1] does the source give for `Cc1cc(Oc2ccc3nc(COc4ccc(CC5SC(=O)NC5=O)cc4)n(C)c3c2)cc(C)c1N` (single isomer, unassigned) [Crystalline form A, monohydrate of 5-(4-{[6-(4-amino-3,5-dimethylphenoxy)-1-methyl-1-H-benzimidazol-2-yl]methoxy}benzyl)-1,3-thiazolidine-2,4-dione dihydrochloride] here?
Its Solubility is 76.92 µg/mL.

And the “Solubility, assessment in words” value [1]?
Its value is “sufficient solubility as a pharmaceutical ingredient”.

Which “ability of PPARγ activation” value [2] does the source give for `Cc1cc(Oc2ccc3nc(COc4ccc(CC5SC(=O)NC5=O)cc4)n(C)c3c2)cc(C)c1N` (centres unmarked) [Compound (I), 5-(4-{[6-(4-amino-3,5-dimethylphenoxy)-1-methyl-1-H-benzimidazol-2-yl]methoxy}benzyl)-1,3-thiazolidine-2,4-dione] here?
Its value is “significant ability of peroxisome proliferator-activated receptor (PPAR) γ activation”.

With `Cc1cc(Oc2ccc3nc(COc4ccc(CC5SC(=O)NC5=O)cc4)n(C)c3c2)cc(C)c1N` (single isomer, unassigned) [Crystalline form B, monohydrate of 5-(4-{[6-(4-amino-3,5-dimethylphenoxy)-1-methyl-1-H-benzimidazol-2-yl]methoxy}benzyl)-1,3-thiazolidine-2,4-dione dihydrochloride] as the compound, how does the Solubility [1] read?
The Solubility was 155.25 µg/mL.

And the “Solubility, assessment in words” value [1]?
The value was “sufficient solubility as a pharmaceutical ingredient; also recorded: higher solubility than the Compound (I) which has been known”.

Which “activity to suppress proliferation of cancer cells” value [3] does the source give for `Cc1cc(Oc2ccc3nc(COc4ccc(CC5SC(=O)NC5=O)cc4)n(C)c3c2)cc(C)c1N` (centres unmarked) [dihydrochloride of Compound (I), 5-(4-{[6-(4-amino-3,5-dimethylphenoxy)-1-methyl-1-H-benzimidazol-2-yl]methoxy}benzyl)-1,3-thiazolidine-2,4-dione dihydrochloride] here?
The value was “significant activity to suppress proliferation”.

What about the “proliferation suppressing activity in human leukemia cells” value [4] of the same compound?
The value was “inhibits significantly proliferation suppressing activity”.

What about the “antitumor activity in vivo” value [5] of the same compound?
The value was “significant antitumor activity”.

And the “activity to suppress proliferation in cancer cells, combination” value ([6]; in combination with a VEGFR inhibitor or a Raf kinase inhibitor, Test Example 6)?
The value was “synergetic activity to suppress proliferation”.

What about the “activity to suppress proliferation in cancer cells, combination” value ([6]; in combination with an epidermal growth factor receptor (EGFR) inhibitor, Test Example 4) of the same compound?
The value was “synergetic activity to suppress proliferation”.

And the antitumor activity ([7]; alone)?
The antitumor activity was “exerts an antitumor activity”.

And the “antitumor activity, combination” value ([7]; in combination with an EGFR inhibitor)?
The value was “enhanced antitumor activity”.

And the antitumor activity ([8]; alone)?
The antitumor activity was “exerts an antitumor activity”.

What about the “antitumor activity, combination” value ([8]; in combination with a VEGFR inhibitor or a Raf kinase inhibitor) of the same compound?
The value was “enhanced antitumor activity”.
